Data: patent US20260285924A1, “PEPTIDE THERAPEUTICS” (priority 2023, published 2026)
Entries after “also recorded” stand apart in the source; their conditions may differ.

Legend:
[1] = test system: A375-NRAS^Q61K; assay: Pan-Cancer PepTile fitness screen (lentiviral 40-mer peptide library, NGS abundance); type: cell-based, human; conditions: peptide enrichment day 14 vs day 0
Experimental: (§1) A peptide tilling screen was performed in A375 similarly to a screen done in MDA-MB-231 (FIG. 1) but with a different lentiviral library. The library (Pan-Cancer library) is composed of 1020 genes tiled every 6 amino acids into 40-mer amino acid long peptides. The gene selection was based on their implication in oncogenesis either being as oncogenes or tumor suppressors. The list was built using recent literature that identified new cancer drivers as well as databases such as Uniprot keywords (KW-0656: Proto-oncogene, KW-0043: Tumor suppressor), and Gene Ontology terms (GO1900117: Apoptosis, GO1901979: Cell cycle checkpoint) (FIG. 2). Aside from Human genes, a list of viral genes was also included (KW-1121: Modulation of host cell cycle by virus) that play roles in high jacking cell cycle progression and thus in oncogenesis (FIG. 2).
(§2) The model of study is melanoma, and this disease is stratified into 4 molecular subtypes, BRAF mutants, NRAS mutants, KIT amplification, NF1 mutations (FIG. 3A). The most prominent mutations found in patient affected with metastatic melanomas are BRAF^V600E and NRAS^Q61K (FIG. 3B). RAS play a key role in oncogenesis and resistance to treatments. Indeed, RAS activating mutations is found in ~20% of all human cancers and secondary NRAS mutation leads to acquired resistance to BRAF targeted therapy such as vemurafenib. Thus, the screen was performed in an A375 cell line model which derived from human BRAF^V600E melanoma as well as an engineered A375 transduced with HA-NRAS^Q61K (FIG. 4A, B). Both cell lines grow at a similar rate but the A375-NRAS^Q61K display more than 10-fold resistance to vemurafenib treatment compared to parental A375 (FIG. 4C, D).
(§3) These cells were transduced with the Pan-Cancer library at a low multiplicity of infection (MOI=0.1-0.3). Then, genomic DNA was extracted at day 0 and day 14 post-transduction to quantify the abundance of peptide for each temporal conditions using Next-generation sequencing. Each experimental replicates were deep sequenced with at least 150 million reads and show a coverage between 82-90% of the initial Pan-Cancer Peptide library (FIG. 5). Then, for each individual peptides a cellular fitness score was calculated based on their enrichment between day 0 and day 14. 8090 peptides negatively affecting growth of A375-WT were identified and 8153 peptides for the A375-NRAS^Q61K cell line (FIG. 6). […] Those common hits are found to be tiles from ~100 genes of the Pan-Cancer gene list and show a substantial biological function clustering.

[2] = test system: A375-WT; assay: Pan-Cancer PepTile/PiTile fitness screen (lentiviral 40-mer peptide library, NGS abundance); type: cell-based, human; set-up: key: enrichment of each peptide's NGS abundance, early day vs Day 14; conditions: Pan-Cancer library, peptide enrichment day 14 vs day 0
Text: FIGS. 13A-13D show Pan-Cancer PiTile Workflow. (A) The Pan-Cancer peptide library is composed of 1081 proteins tiled into 40-mer peptides at every 6 amino acids of the parental protein. The DNA-encoded library is cloned into lentiviral vectors and packaged into lentivirus. (B) A375 cell line was transduced with the Pan-Cancer PiTile library. Genomic DNA was then harvested at Day2 and Day 14 post-transduction and cell populations abundance expressing the different peptides were quantified using Next-Generation Sequencing (NGS). Peptide fitness score was then calculated by the abundance of each peptide at Day2 versus Day 14. Then the fitness signal is mapped over the original amino acid positions of the derived protein. (C) Coverage of the plasmid Pan-Cancer library and peptide-amplicons from Day2 and Day 14 replicated was determined by NGS. (D) Dot plot of the experimental result obtain from screening the Pan-Cancer library in A375 cell line.
as §1, §2, §3
We built a DNA-encoded peptide library composed of all known Human oncogenes and Tumor Suppressors that we fragmented in 40 amino acid long peptides, the Pan-Cancer library. Using lentiviral expression system, we transduced the Pan-Cancer library in A375 cell line. After 14 days of growth, the frequency of each peptide is measured by NGS and this reveal which peptides affect cell fitness. […]

[3] = test system: A375-NRAS^Q61K; assay: Validation assay: cell growth (CCK8, 48 hours after plating) of cells transduced with single peptide tiles; type: cell-based, human; conditions: peptide overexpression
Text: (§4) FIGS. 9A-9C. (A) Fitness screen validation assay workflow. (B) Validation assay results (C) Fitness screen results.
(§5) All those selected hits mapped to a known protein domain with known roles in protein-protein interaction or protein-DNA interaction. […] When the fold change of every tile on the protein amino acid positions was mapped, functional regions of the protein affecting cell growth were identified. For example, on RAF1, peaks corresponding to the Ras-binding domain (RBD) were identified, and the kinase domain (FIG. 8A). […] In addition, a region of MYC that affect cell growth was identified and mapped on the DNA binding domain bHLH (FIG. 8). […] To validate the results from the screen, A375-WT and -NRAS^Q61K were transduced with GFP_147, or RAF1_78, MYC_384, or KIT_499, or SOS_120 tiles and cell growth measured using CCK8 assay
(§6) 48 hours after plating (FIG. 9A). […] The CR2 domain of BRAF contain a 14-3-3 binding site and play a role in BRAF-MEK autoinhibitory complex which regulates MAPK pathway activation. One of the goals of this contextual PepTile screen was to identify peptides that would impair growth of NRAS cell line but not the parental, to address overall NRAS-driven drug resistance. For instance, more than 6000 peptide hits were detected that are exclusive to A375-NRAS^Q61K (FIG. 6). For example, ARHGAP20 and ARHGAP26 show a very different PepTile profiles between A375-NRAS^Q61K and A375-WT (FIG. 11) and seem to have more of an effect in the A375-NRAS^Q61K condition. Altogether, the Pan-Cancer PepTile screen show the potential of finding new potential peptides to target NRAS melanoma, as well as mapping protein domains involved in cellular growth in a given context.

[4] = test system: A375-WT; assay: as above; type: cell-based, human; conditions: peptide overexpression
Experimental: as §4
(§7) FIGS. 14A-14E show PiTiles derived from DNA-binding domains of MYC and SOX17 inhibit transcriptional program. (A) Experimental workflow of A375 cell line individually transduced with lentivirus expressing GFP_147, MYC_384 or SOX17_96. 5 days post-transductions, RNA was harvested for RNA sequencing. Additionally, cells were plated for a 48-hour growth assay. (B) Cell growth of A375 cell line expressing GFP_147 (control), MYC_384 and SOX17_96. […] Red bar=FDR<0.05. We observe a negative peak in bHLHzip domain of MYC as well as HMG box domain of SOX17. Both domains mediated binding to DNA. (D) Principal Component Analysis of RNA-sequencing for both biological replicates of GFP_147, MYC_384 and SOX17_96 expressing cell lines. (E) A375 RNAseq data was analyzed using Gene Set Enrichment Analysis. For MYC_384 versus GFP_147 over ODONNEL_TARGET_OF_MYC_and_TFRC. For SOX17_96 versus GFP_147 over PRANMOOJAGO_SOX4.
as §5, §6

[5] = test system: MDA-MB-231; conditions: cited from earlier work
[6] = test system: MYC transcriptional program (ODONNEL_TARGET_OF_MYC_and_TFRC); assay: RNA-sequencing GSEA of A375 expressing MYC_384 versus GFP_147; type: cell-based, human; conditions: 5 days post-transduction
Experimental: as §7

[7] = test system: SOX17 transcriptional program (PRANMOOJAGO_SOX4); assay: RNA-sequencing GSEA of A375 expressing SOX17_96 versus GFP_147; type: cell-based, human; conditions: 5 days post-transduction
Experimental: as §7

Row | Substance | A375-NRAS Fitness Score [1] | A375-WT Fitness Score [2] | cell growth compared to GFP_147 [3] | cell growth compared to GFP_147 [4] | hit in previous screen [5] | GSEA of MYC transcriptional program [6] | cell growth compared to GFP_147 ([4]; listed as MYC_384) | GSEA of SOX17 transcriptional program [7]
1 | KIT_84: 40-mer peptide tile of KIT, AA start position 498, Transmembrane domain (GKTSAYFNFAFKGNNKEQIHPHTLFTPLLIGFVIVAGMMC; UniProt P10721 498-537, looked up, fragment) | −0.77 | −3.23 | much less affected | decreases cell growth | – | – | – | –
2 | MYC_65: 40-mer peptide tile of MYC, AA start position 384, bHLH domain (ELKRSFFALRDQIPELENNEKAPKVVILKKATAYILSVQA; UniProt P01106 384-423, looked up, fragment) | −0.47 | −2.50 | not affected | – | identified and validated | downregulation of their respective transcriptional programs | cell growth defect; also recorded: decreases cell growth | –
3 | RAF1_14: 40-mer peptide tile of RAF1, AA start position 78, RBD (LHDCLMKALKVRGLQPECCAVFRLLHEHKGKKARLDWNTD; UniProt P04049 78-117, looked up, fragment) | −0.50 | −1.79 | much less affected | decreases cell growth | identified and validated | – | – | –
4 | SOS1_21: 40-mer peptide tile of SOS1, AA start position 120, HF domain | −0.81 | −2.56 | not affected | decreases cell growth | – | – | – | –
5 | SOX17_17: 40-mer peptide tile of SOX17, AA start position 96, HMG box | −0.77 | −4.49 | – | cell growth defect | – | – | – | downregulation of their respective transcriptional programs
